This note sets out measurements from patent US10174002B2, “Pyridine derivatives as CFTR modulators” (NuBridge BioSciences, priority 2015, dated 2019).

T1 sequence (P13569 with tags, fused parts or gaps DEL508-508): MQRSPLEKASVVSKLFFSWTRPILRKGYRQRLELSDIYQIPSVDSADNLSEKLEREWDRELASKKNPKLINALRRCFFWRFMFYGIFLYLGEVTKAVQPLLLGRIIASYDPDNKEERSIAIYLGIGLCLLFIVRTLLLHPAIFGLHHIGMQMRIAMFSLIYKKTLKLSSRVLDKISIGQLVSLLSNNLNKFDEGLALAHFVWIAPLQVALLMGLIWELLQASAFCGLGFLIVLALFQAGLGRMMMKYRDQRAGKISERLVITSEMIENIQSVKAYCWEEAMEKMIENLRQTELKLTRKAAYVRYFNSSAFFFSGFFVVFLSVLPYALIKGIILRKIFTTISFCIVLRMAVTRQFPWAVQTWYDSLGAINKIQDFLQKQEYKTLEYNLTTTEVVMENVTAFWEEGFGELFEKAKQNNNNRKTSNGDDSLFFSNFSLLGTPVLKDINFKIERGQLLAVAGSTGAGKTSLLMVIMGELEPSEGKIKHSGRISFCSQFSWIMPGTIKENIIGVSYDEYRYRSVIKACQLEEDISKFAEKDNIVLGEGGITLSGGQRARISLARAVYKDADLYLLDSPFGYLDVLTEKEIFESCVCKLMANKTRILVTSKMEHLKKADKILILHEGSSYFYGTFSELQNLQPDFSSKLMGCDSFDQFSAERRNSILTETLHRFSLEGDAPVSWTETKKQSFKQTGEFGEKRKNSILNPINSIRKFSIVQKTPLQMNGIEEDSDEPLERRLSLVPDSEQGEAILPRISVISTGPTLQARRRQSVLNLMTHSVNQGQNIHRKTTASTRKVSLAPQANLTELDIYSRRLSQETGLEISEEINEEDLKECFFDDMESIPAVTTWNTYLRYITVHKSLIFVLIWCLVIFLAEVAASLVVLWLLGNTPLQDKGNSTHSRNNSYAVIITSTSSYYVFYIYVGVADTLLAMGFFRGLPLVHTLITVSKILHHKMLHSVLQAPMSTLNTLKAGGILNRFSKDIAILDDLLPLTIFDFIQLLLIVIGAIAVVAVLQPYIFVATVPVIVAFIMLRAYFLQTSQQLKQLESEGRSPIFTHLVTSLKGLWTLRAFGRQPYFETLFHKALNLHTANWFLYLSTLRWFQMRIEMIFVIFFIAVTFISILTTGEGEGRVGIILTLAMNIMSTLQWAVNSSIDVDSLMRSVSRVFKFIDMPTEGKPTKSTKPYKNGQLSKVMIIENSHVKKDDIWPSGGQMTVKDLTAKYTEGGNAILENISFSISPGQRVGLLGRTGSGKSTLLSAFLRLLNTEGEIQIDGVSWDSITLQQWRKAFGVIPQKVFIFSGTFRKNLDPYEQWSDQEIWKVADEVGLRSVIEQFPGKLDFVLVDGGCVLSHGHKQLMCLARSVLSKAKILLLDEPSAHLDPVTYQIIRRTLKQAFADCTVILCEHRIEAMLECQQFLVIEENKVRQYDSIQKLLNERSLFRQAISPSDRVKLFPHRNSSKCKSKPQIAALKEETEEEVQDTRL

The assay addresses T1, ΔF508 mutant CFTR (Homo sapiens, UniProt P13569, DEL508-508).
T1 construct: expressed in transfected cells; host or cells: Fischer rat thyroid (FRT) cells, co-expressing the halide-sensitive YFP-H148Q/I152L
The experiment in a line: Fluorescence Assay of ΔF508 mutant CFTR activity (halide-sensitive YFP quenching by iodide influx in FRT cells). Type of assay: cell-based. Details: key: fold of mean activity with forskolin alone (I− quenching rate). The note with it: test compounds 20 μM with forskolin 20 μM, 20 min; FRT cells expressing ΔF508-CFTR and YFP-H148Q/I152L, incubated at 27° C. 20-24 h; rate of fluorescence quenching by I−, normalized to mean activity with forskolin alone. The source says: The ΔF508 mutant CFTR activities of the CFTR modulators are detected using the Fluorescence Assay developed by Pedemonte (Pedemonte N., et al., Antihypertensive 1,4-dihydropyridines as correctors of the cystic fibrosis transmembrane conductance regulator channel gating defect caused by cystic fibrosis mutations, Mol. Pharmacol., 2005, 68, 1736-1746).
Fischer rat thyroid (FRT) cells, stably transfected with ΔF508 were retransfected with the YFP-H148Q/I152L fluorescent protein. The cells were plated (100,000 cells/well) on black 96-well microplates with clear plastic bottom (Corning Life Sciences, Acton, Mass.).
The 96-well microplates containing FRT cells expressing F508-CFTR and the halide-sensitive YFP were incubated at 27° C. for 20 to 24 h to allow rescue of the mutant protein to the plasma membrane. After incubation, cells were washed with PBS (containing 137 mM NaCl, 2.7 mM KCl, 8.1 mM Na2HPO4, 1.5 mM KH2PO4, 1 mM CaCl2, and 0.5 mM MgCl2) and stimulated for 20 min with forskolin (20 μM) and test compounds (20 μM) in a final volume of 60 μl. Microplates were then transferred to a microplate reader for CFTR activity determination. Each assay consisted of a continuous 14-s fluorescence reading (5 points per second) with 2 s before and 12 s after injection of 165 μl of an iodide-containing solution (PBS with Cl^− replaced by I^−). Final iodide concentration in the wells was 100 mM. […] To determine I^− influx rate, the final 11 s of the data for each well were fitted with an exponential function to extrapolate initial slope. CFTR activity was determined by measuring the rate of fluorescence quenching induced by extracellular addition of I^−. Data are normalized to the mean activity measured in the presence of forskolin alone.
Consider `Cl.NC1CCC(Oc2ccncc2NC(=O)c2ccc(F)c(-c3c(F)cccc3F)n2)CC1` (stereo not drawn) [Example 10, N-(4-(((1r,4r)-4-aminocyclohexyl)oxy)pyridin-3-yl)-6-(2,6-difluorophenyl)-5-fluoropicolinamide hydrochloride], for which the “CFTR Activity” value is recorded as 2.2. For `Cl.O=C(Nc1cnccc1OC1CCNCC1)c1ccc(F)c(-c2ccncc2)n1` [Example 39, 3-fluoro-N-(4-(piperidin-4-yloxy)pyridin-3-yl)-[2,4′-bipyridine]-6-carboxamide hydrochloride] the value was 1.0; for `Cl.NCC(CCl)COc1ccncc1NC(=O)c1nc(-c2c(F)cccc2F)c(C(F)(F)F)cc1N` (stereo not drawn) [Example 55, 3-amino-N-(4-(3-amino-2-(chloromethyl)propoxy)pyridin-3-yl)-6-(2,6-difluorophenyl)-5-(trifluoromethyl)picolinamide hydrochloride], 5.5; for `Cl.Nc1cc(F)c(-c2c(F)cccc2F)nc1C(=O)Nc1cnccc1OCC1CCCNC1` (stereo not drawn) [Example 35, 3-amino-6-(2,6-difluorophenyl)-5-fluoro-N-(4-(piperidin-3-ylmethoxy)pyridin-3-yl)picolinamide hydrochloride], 2.1. For `Cl.N[C@H]1CC[C@H](Oc2ccncc2NC(=O)c2ccc(C(F)(F)F)c(-c3c(F)cccc3F)n2)CC1` [Example 46, N-(4-(((1r,4r)-4-aminocyclohexyl)oxy)pyridin-3-yl)-6-(2,6-difluorophenyl)-5-(trifluoromethyl)picolinamide hydrochloride] the value was 3.1. Then `Cl.NCCCOc1ccncc1NC(=O)c1ccc(F)c(-c2c(F)cccc2F)n1` [Example 12, N-(4-(3-aminopropoxy)pyridin-3-yl)-6-(2,6-difluorophenyl)-5-fluoropicolinamide hydrochloride], with 0.7. On to `Cl.NCC(CCl)COc1ccncc1NC(=O)c1ccc(C(F)(F)F)c(-c2c(F)cccc2F)n1` (stereo not drawn) [Example 54, N-(4-(3-amino-2-(chloromethyl)propoxy)pyridin-3-yl)-6-(2,6-difluorophenyl)-5-(trifluoromethyl)picolinamide hydrochloride], for which the “CFTR Activity” value came out at 1.8.

With `Cl.O=C(Nc1cnccc1OCC1CNC1)c1ccc(C(F)(F)F)c(-c2c(F)cccc2F)n1` [Example 44, N-(4-(azetidin-3-ylmethoxy)pyridin-3-yl)-6-(2,6-difluorophenyl)-5-(trifluoromethyl)picolinamide hydrochloride], the “CFTR Activity” value was 2.1. On to `Cl.NCCCCOc1ccncc1NC(=O)c1ccc(F)c(-c2c(F)cccc2F)n1` [Example 15, N-(4-(4-aminobutoxy)pyridin-3-yl)-6-(2,6-difluorophenyl)-5-fluoropicolinamide hydrochloride], for which the “CFTR Activity” value stood at 0.7.

Regarding `Cl.O=C(Nc1cnccc1OC1CCNCC1)c1ccc(F)c(-c2c(F)cccc2F)n1` [Example 3, 6-(2,6-difluorophenyl)-5-fluoro-N-(4-(piperidin-4-yloxy)pyridin-3-yl)picolinamide hydrochloride], the “CFTR Activity” value is 1.6. For `Cl.O=C(Nc1cnccc1OCC1CCCNC1)c1ccc(F)c(-c2c(F)cccc2F)n1` (stereo not drawn) [Example 7, 6-(2,6-difluorophenyl)-5-fluoro-N-(4-(piperidin-3-ylmethoxy)pyridin-3-yl)picolinamide hydrochloride] the value was 0.8; for `Cl.O=C(Nc1cnccc1OC1CCCNCC1)c1nc(-c2c(F)cccc2F)ccc1F` (stereo not drawn) [Example 40, N-(4-(azepan-4-yloxy)pyridin-3-yl)-6-(2,6-difluorophenyl)-3-fluoropicolinamide hydrochloride], 1.8.

Take `Cl.O=C(Nc1cnccc1OCC1CCNCC1)c1ccc(C(F)(F)F)c(-c2c(F)cccc2F)n1` [Example 43, 6-(2,6-difluorophenyl)-N-(4-(piperidin-4-ylmethoxy)pyridin-3-yl)-5-(trifluoromethyl)picolinamide hydrochloride]: the “CFTR Activity” value was 2.3. For `Cl.Nc1cc(C(F)(F)F)c(-c2ccccc2)nc1C(=O)Nc1cnccc1OC1CCNC1` (stereo not drawn) [Example 53, 3-amino-6-phenyl-N-(4-(pyrrolidin-3-yloxy)pyridin-3-yl)-5-(trifluoromethyl)picolinamide hydrochloride] the value was 2.5. Turning to `Cl.Nc1cc(F)c(-c2c(F)cccc2F)nc1C(=O)Nc1cnccc1OC1CCNCC1` [Example 25, 3-amino-6-(2,6-difluorophenyl)-5-fluoro-N-(4-(piperidin-4-yloxy)pyridin-3-yl)picolinamide hydrochloride], the “CFTR Activity” value was found to be 3.2. On to `Cl.NCC(CCl)Oc1ccncc1NC(=O)c1nc(-c2c(F)cccc2F)c(F)cc1N` (stereo not drawn) [Example 33, 3-amino-N-(4-((1-amino-3-chloropropan-2-yl)oxy)pyridin-3-yl)-6-(2,6-difluorophenyl)-5-fluoropicolinamide hydrochloride], for which the “CFTR Activity” value is 2.1.

Regarding `O=C(Nc1cnccc1OCCCO)c1ccc(F)c(-c2c(F)cccc2F)n1` [Example 17, 6-(2,6-difluorophenyl)-5-fluoro-N-(4-(3-hydroxypropoxy)pyridin-3-yl)picolinamide], the “CFTR Activity” value turned out to be 0.2. Take `Cl.NC1CCCC(Oc2ccncc2NC(=O)c2ccc(F)c(-c3c(F)cccc3F)n2)C1` (stereo not drawn) [Example 11, N-(4-((3-aminocyclohexyl)oxy)pyridin-3-yl)-6-(2,6-difluorophenyl)-5-fluoropicolinamide hydrochloride]: the “CFTR Activity” value was determined as 3.1. Then `O=C(Nc1cnccc1OCC1CCOCC1)c1ccc(C(F)(F)F)c(-c2c(F)cccc2F)n1` [Example 47, 6-(2,6-difluorophenyl)-N-(4-((tetrahydro-2H-pyran-4-yl)methoxy)pyridin-3-yl)-5-(trifluoromethyl)picolinamide], with 0.4. Then `Cl.O=C(Nc1cnccc1OC1CCNCC1)c1ccc(C(F)(F)F)c(-c2c(F)cccc2F)n1` [Example 45, 6-(2,6-difluorophenyl)-N-(4-(piperidin-4-yloxy)pyridin-3-yl)-5-(trifluoromethyl)picolinamide hydrochloride], with 2.7; and `Cl.Nc1cc(C(F)(F)F)c(-c2c(F)cccc2F)nc1C(=O)Nc1cnccc1O[C@H]1CC[C@H](N)CC1` [Example 52], with 5.4. On to `CN(C)CCCOc1ccncc1NC(=O)c1ccc(F)c(-c2c(F)cccc2F)n1.Cl` [Example 14, 6-(2,6-difluorophenyl)-N-(4-(3-(dimethylamino)propoxy)pyridin-3-yl)-5-fluoropicolinamide hydrochloride], for which the “CFTR Activity” value turned out to be 0.2. As to `Cl.Nc1cc(F)c(-c2c(F)cccc2F)nc1C(=O)Nc1cnccc1OCC1CCNC1` (stereo not drawn) [Example 28, 3-amino-6-(2,6-difluorophenyl)-5-fluoro-N-(4-(pyrrolidin-3-ylmethoxy)pyridin-3-yl)picolinamide hydrochloride], the “CFTR Activity” value was 2.2. For `Cl.Nc1cc(C(F)(F)F)c(-c2c(F)cccc2F)nc1C(=O)Nc1cnccc1OCC1CCNCC1` [Example 49, 3-amino-6-(2,6-difluorophenyl)-N-(4-(piperidin-4-ylmethoxy)pyridin-3-yl)-5-(trifluoromethyl)picolinamide hydrochloride] the value was 4.3.
